Reference: article PMC8000495, “A New Anti-Estrogen Discovery Platform Identifies FDA-Approved Imidazole Anti-Fungal Drugs as Bioactive Compounds against ERα Expressing Breast Cancer Cells” (International Journal of Molecular Sciences, 2021)
pIC50: −log10 of the molar value.

How the values were obtained:
[1] = target: T1, estrogen receptor α (ERα) (Homo sapiens, UniProt P03372); assay: fluorescence polarization competitive binding, dose-response
T1 construct: gene ESR1
T1 sequence (P03372 1-595): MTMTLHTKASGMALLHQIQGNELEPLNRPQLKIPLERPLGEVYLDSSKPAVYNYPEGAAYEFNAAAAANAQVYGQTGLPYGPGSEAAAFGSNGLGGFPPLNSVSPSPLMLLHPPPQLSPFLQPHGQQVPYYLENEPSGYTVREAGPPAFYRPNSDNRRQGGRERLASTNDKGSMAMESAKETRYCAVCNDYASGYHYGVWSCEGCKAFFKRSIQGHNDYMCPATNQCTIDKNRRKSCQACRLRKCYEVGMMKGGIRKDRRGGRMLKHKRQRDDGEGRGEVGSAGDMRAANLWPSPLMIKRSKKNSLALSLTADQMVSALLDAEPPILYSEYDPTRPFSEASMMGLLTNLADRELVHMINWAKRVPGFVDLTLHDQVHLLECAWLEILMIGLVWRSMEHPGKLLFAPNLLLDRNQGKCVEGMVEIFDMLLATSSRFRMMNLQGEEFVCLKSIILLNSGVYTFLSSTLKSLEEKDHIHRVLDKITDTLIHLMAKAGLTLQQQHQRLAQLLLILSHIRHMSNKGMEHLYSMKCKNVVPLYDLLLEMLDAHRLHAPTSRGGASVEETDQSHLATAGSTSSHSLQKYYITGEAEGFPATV

[2] = target: T1, estrogen receptor α (ERα)

Row | Structure (SMILES) | pIC50 [1] | fluorescence polarization competitive binding screen, single dose 10^-4 M, Z* > [2]
1 | Clc1ccc(C(Cn2ccnc2)OCc2ccc(Sc3ccccc3)cc2)c(Cl)c1 (centres unmarked) [Fenti, fenticonazole] | ~4.85 | –
2 | Oc1ccc(/C=C/c2cc(O)cc(O)c2)cc1 [resveratrol] | – | we found well-known receptor ligands (e.g., estriol, resveratrol, genistein)
